{"source": "patent US8324250B2", "about": "(Hoffmann-La Roche Inc., priority 2009, dated 2012)", "note": "pKi: −log10 of the molar value."}
{"target": "T1, recombinant human NK3 receptor (Homo sapiens, UniProt P29371)", "T1 construct": "expressed in transfected cells; host or cells: HEK293 cells (transient expression), membranes", "T1 sequence (P29371 1-465)": "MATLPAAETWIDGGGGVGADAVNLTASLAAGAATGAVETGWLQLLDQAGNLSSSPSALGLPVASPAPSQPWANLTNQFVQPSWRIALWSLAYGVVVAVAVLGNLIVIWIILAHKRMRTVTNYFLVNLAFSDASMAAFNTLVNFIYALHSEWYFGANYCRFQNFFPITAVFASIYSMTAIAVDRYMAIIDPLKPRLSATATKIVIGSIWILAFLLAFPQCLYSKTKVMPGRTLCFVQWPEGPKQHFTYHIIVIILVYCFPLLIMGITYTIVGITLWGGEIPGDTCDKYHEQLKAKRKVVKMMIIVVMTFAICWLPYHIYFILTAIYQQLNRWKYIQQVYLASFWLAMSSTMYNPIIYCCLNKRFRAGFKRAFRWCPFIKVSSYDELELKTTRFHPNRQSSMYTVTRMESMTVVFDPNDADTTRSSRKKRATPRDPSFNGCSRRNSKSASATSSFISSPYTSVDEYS", "assay": "[3H]SR142801 competition binding assay", "settings": "membranes from HEK293 cells transiently expressing recombinant human NK3 receptor; [3H]SR142801 radioligand; 75 min at RT; Ki by Cheng-Prussoff; read-out: Data Ki (hNK-3 receptor affinity)", "protocol": "[^3H]SR142801 Competition Binding Assay\nhNK3 receptor binding experiment were performed using [^3H]SR142801 (Catalog No. TRK1035, specific activity: 74.0 Ci/mmol, Amersham, GE Healthcare UK limited, Buckinghamshire, UK) and membrane isolated from HEK293 cells transiently expressing recombinant human NK3 receptor. After thawing, the membrane homogenates were centrifuged at 48,000×g for 10 min at 4° C., the pellets were resuspended in the 50 mM Tris-HCl, 4 mM MnCl2, 1 μM phosphoramidon, 0.1% BSA binding buffer at pH 7.4 to a final assay concentration of 5 μg protein/well. […] At the end of the incubation, membranes were filtered onto unitfilter (96-well white microplate with bonded GF/C filter preincubated 1 h in 0.3% PEI+0.3% BSA, Packard BioScience, Meriden, Conn.) with a Filtermate 196 harvester (Packard BioScience) and washed 4 times with ice-cold 50 mM Tris-HCl, pH 7.4 buffer. Nonspecific binding was measured in the presence of 10 μM SB222200 for both radioligands. The radioactivity on the filter was counted (5 min) on a Packard Top-count microplate scintillation counter with quenching correction after addition of 45 μl of microscint 40 (Can berra Packard S. A., Zurich, Switzerland) and shaking for 1 h. Inhibition curves were fitted according to the Hill equation: y=100/(1+(x/IC50)^nH), where nH=slope factor using Excel-fit 4 software (Microsoft). IC50 values were derived from the inhibition curve and the affinity constant (Ki) values were calculated using the Cheng-Prussoff equation Ki═IC50/(1+[L]/KD) where [L] is the concentration of radioligand and KD is its dissociation constant at the receptor, derived from the saturation isotherm. All experiments were performed in duplicate and the mean±standard error (SEM) of the individual Ki values was calculated."}
{"smiles": "CCN(NC(=O)C1(c2ccc(F)cc2)CCN(C(=O)c2ccc(-c3nc(C)no3)cc2)CC1)c1ccc(F)cc1", "note": "[Example 160, 4-(4-Fluoro-phenyl)-1-[4-(3-methyl-[1,2,4]oxodiazol-5-yl)-benzoyl]-piperidine-4-carboxylic acid N′-ethyl-#N!′-(4-fluoro-phenyl)-hydrazide]", "pKi": 7.04}
{"smiles": "Cc1noc(-c2ccc(C(=O)N3CCC(C(=O)N[C@@H](C)c4ccc(F)cc4)(c4ccccc4)CC3)cc2)n1", "note": "[Example 76, 1-[4-(3-Methyl-[1,2,4]oxa-diazol-5-yl)-benzoyl]-4-phenyl-piperidine-4-carboxylic acid [(S)-1-(4-fluoro-phenyl)-ethyl]-amide]", "pKi": 8.54}
{"smiles": "O=C(c1ccc(N2CCCCC2=O)cc1)N1CCC(C(=O)N[C@H](c2cccc(F)c2)C2CC2)(c2ccc(F)cc2)CC1", "note": "[Example 198, 4-(4-Fluoro-phenyl)-1-[4-(2-oxo-piperidine-1-yl)-benzoyl]-piperidine-4-carboxylic acid [(S)-cyclopropyl-(3-fluoro-phenyl)-methyl]-amide]", "pKi": 7.67}
{"smiles": "Cc1nc(-c2ccc(C(=O)N3CCC(C(=O)N[C@@H](C)c4cccc(F)c4)(c4ccc(F)cc4)CC3)cc2)no1", "note": "[Example 167, 4-(4-Fluoro-phenyl)-1-[4-(5-methyl-[1,2,4]oxadiazol-3-yl)-benzoyl]-piperidine-4-carboxylic acid [(S)-1-(3-fluoro-phenyl)-ethyl]-amide]", "pKi": 7.77}
{"smiles": "C[C@H](NC(=O)C1(c2ccc(F)cc2)CCN(C(=O)c2ccc(N3CCS(=O)(=O)CC3)cc2)CC1)c1ccc(F)cc1", "note": "[Example 1, 1-[4-(1,1-Dioxo-1λ^6-thiomorpholin-4-yl)-benzoyl]-4-(4-fluoro-phenyl)-piperidine-4-carboxylic acid [(S)-1-(4-fluoro-phenyl)-ethyl]-amide]", "pKi": 7.53}
{"smiles": "O=C(c1ccc(-c2ccc(F)cc2)cc1)N1CCC(C(=O)NC(c2ccccc2)C(F)(F)F)(c2ccc(F)cc2)CC1", "note": "(stereo not drawn) [Example 145, 1-(4′-Fluoro-biphenyl-4-carbonyl)-4-(4-fluoro-phenyl)-piperidine-4-carboxylic acid (2,2,2-trifluoro-1-phenyl-ethyl)-amide]", "pKi": 7.44}
{"smiles": "Cc1nc(-c2ccc(C(=O)N3CCC(C(=O)N[C@@H](C)c4ccccc4)(c4ccccc4)CC3)cc2)no1", "note": "[Example 41, 1-[4-(5-Methyl-[1,2,4]oxa-diazol-3-yl)-benzoyl]-4-phenyl-piperidine-4-carboxylic acid ((S)-1-phenyl-ethyl)-amide]", "pKi": 8.03}
{"smiles": "C[C@H](NC(=O)C1(c2ccc(F)cc2)CCN(C(=O)c2ccc(-c3ccc(F)cc3)cc2)CC1)c1cccc(F)c1", "note": "[Example 129, 1-(4′-Fluoro-biphenyl-4-carbonyl)-4-(4-fluoro-phenyl)-piperidine-4-carboxylic acid [(S)-1-(3-fluoro-phenyl)-ethyl]-amide]", "pKi": 7.92}
{"smiles": "C[C@H](NC(=O)C1(c2ccccc2)CCN(C(=O)N2CCN(C3CCCCC3)CC2)CC1)c1ccccc1", "note": "[Example 230, 1-(4-Cyclohexyl-piperazine-1-carbonyl)-4-phenyl-piperidine-4-carboxylic acid ((S)-1-phenyl-ethyl)-amide]", "pKi": 7.66}
{"smiles": "O=C(c1ccc(-c2ccc(F)cc2)cc1)N1CCC(C(=O)N[C@H](c2cccc(F)c2)C2CC2)(c2ccc(F)cc2)CC1", "note": "[Example 193, 1-(4′-Fluoro-biphenyl-4-carbonyl)-4-(4-fluoro-phenyl)-piperidine-4-carboxylci acid [(S)-cyclopropyl-(3-fluoro-phenyl)-methyl]-amide]", "pKi": 8.13}
{"smiles": "C[C@H](NC(=O)C1(c2ccccc2)CCN(C(=O)c2ccc(-c3ccc(F)cc3)cc2)CC1)c1ccccc1", "note": "[Example 54, 1-(4′-Fluoro-biphenyl-4-carbonyl)-4-phenyl-piperidine-4-carboxylic acid ((S)-1-phenyl-ethyl)-amide]", "pKi": 8.14}
{"smiles": "O=C(c1ccc(-c2ccc(F)cc2)cc1)N1CCC(C(=O)N[C@@H](CO)c2ccccc2)(c2ccc(F)cc2)CC1", "note": "[Example 140, 1-(4′-Fluoro-biphenyl-4-carbonyl)-4-(4-fluoro-phenyl)-piperidine-4-carboxylic acid ((R)-2-hydroxy-1-phenyl-ethyl)-amide]", "pKi": 8.11}
{"smiles": "O=C(c1ccc(-c2ccc(F)cc2)cc1)N1CCC(C(=O)NNc2ccc(F)c(F)c2)(c2ccc(F)cc2)CC1", "note": "[Example 191, 1-(4′-Fluoro-biphenyl-4-carbonyl)-4-(4-fluoro-phenyl)-piperidine-4-carboxylic acid N′-(3,4-difluoro-phenyl)-hydrazide]", "pKi": 7.77}
{"smiles": "C[C@H](NC(=O)C1(c2ccccc2)CCN(C(=O)N2CCN(c3ccccc3)CC2)CC1)c1ccccc1", "note": "[Example 232, 4-Phenyl-1-(4-phenyl-piperazine-1-carbonyl)-piperidine-4-carboxylic acid ((S)-1-phenyl-ethyl)-amide]", "pKi": 7.44}
{"smiles": "O=C(c1ccc(-c2ccc(F)cc2)cc1)N1CCC(C(=O)NC(CC2CC2)c2ccccc2)(c2ccc(F)cc2)CC1", "note": "(stereo not drawn) [Example 148, 1-(4′-Fluoro-biphenyl-4-carbonyl)-4-(4-fluoro-phenyl)-piperidine-4-carboxylic acid (2-cyclopropyl-1-phenyl-ethyl)-amide]", "pKi": 8.24}
{"smiles": "N#Cc1ccc(N2CCC(C(=O)N3CCC(C(=O)NC(c4ccc(F)cc4)C(F)(F)F)(c4ccc(F)cc4)CC3)CC2)nc1", "note": "(stereo not drawn) [Example 154, 1-(5′-Cyano-3,4,5,6-tetrahydro-2H-[1,2′]bipyridinyl-4-carbonyl)-4-(4-fluoro-phenyl)-piperidine-4-carboxylic acid [2,2,2-trifluoro-1-(4-fluoro-phenyl)-ethyl]-amide]", "pKi": 7.12}
{"smiles": "C[C@H](NC(=O)C1(c2ccccc2)CCN(C(=O)c2ccc(-c3cnco3)cc2)CC1)c1ccccc1", "note": "[Example 22, 1-(4-Oxazol-5-yl-benzoyl)-4-phenyl-piperidine-4-carboxylic acid ((S)-1-phenyl-ethyl)-amide]", "pKi": 7.18}
{"smiles": "CN(Cc1ccc(F)cc1)C(=O)C1(c2ccccc2)CCN(C(=O)c2ccc(N3CCS(=O)(=O)CC3)cc2)CC1", "note": "[Example 106, 1-[4-(1,1-Dioxo-1λ6-thiomor-pholin-4-yl)-benzoyl]-4-phenyl-piperidine-4-carboxylic acid (4-fluoro-benzyl)-methyl-amide]", "pKi": 7.25}
{"smiles": "Cc1noc(-c2ccc(C(=O)N3CCC(C(=O)NC4(c5ccc(F)cc5)CC4)(c4ccc(F)cc4)CC3)cc2)n1", "note": "[Example 157, 4-(4-Fluoro-phenyl)-1-[4-(3-methyl-[1,2,4]oxadiazol-5-yl)-benzoyl]-piperidine-4-carboxylic acid [1-(4-fluoro-phenyl)-cyclopropyl]-amide]", "pKi": 8.03}
{"smiles": "Cc1nc(-c2ccc(C(=O)N3CCC(C(=O)NC4(c5ccc(F)cc5)CC4)(c4ccc(F)cc4)CC3)cc2)no1", "note": "[Example 163, 4-(4-Fluoro-phenyl)-1-[4-(5-methyl-[1,2,4]oxadiazol-3-yl)-benzoyl]-piperidine-4-carboxylic acid [1-(4-fluoro-phenyl)-cyclopropyl]-amide]", "pKi": 7.39}
{"smiles": "C[C@H](NC(=O)C1(c2ccccc2)CCN(C(=O)c2ccc(N3CCS(=O)(=O)CC3)nc2)CC1)c1ccccc1", "note": "[Example 98, 1-[6-(1,1-Dioxo-1λ6-thiomor-pholin-4-yl)-pyridine-3-carbonyl]-4-phenyl-piperidine-4-carboxylic acid ((S)-1-phenyl-ethyl)-amide]", "pKi": 7.47}
